In patent publication US8946201B2, “Methods for inhibiting TGF-β” (Saint Louis University, priority 2007, dated 2015):

Tests used:
PAI-1 expression = experiment: TGF-β1-induced PAI-1 expression, Northern blot, BAEC; format: cell-based, bovine; conditions: 50 μg/ml, TGF-β1 2 to 100 pM
Experimental: (A, B, C, D, E, F) Cells were treated with 50 μg/ml cholesterol (A, B, C, D) and 50 μg/ml LDL (D) at 37° C. for 1 hr or with 1 μM fluvastatin or lovastatin (E) or several concentrations of fluvastatin (F) at 37° C. for 16 hr and then further incubated with increasing concentrations (as indicated) of TGF-β1 (A, B, C, E) or 50 pM TGF-β1 (D,F) for 2 hr. Northern blot analysis of PAI-1 and G3PDH was performed. A representative of a total of three analyses is shown (a). The relative intensities of the transcripts were quantified with a PhosphoImager. The ratio of the relative intensities of PAI-1 and G3PDH transcripts in cells treated without TGF-β1 and cholesterol, LDL or statins on the blot was taken as 1 fold or 100% of PAI-1 expression. The quantitative data from three independent analyses is shown (b). […] (G) Mv1Lu cells stably expressing a luciferase reporter gene driven by the PAI-1 promoter (MLECs-clone 32) were treated with increasing concentrations (as indicated) of cholesterol at 37 EC for 1 hr (a) or with 1 μM lovastatin at 37° C. for 16 hr (b) and then further incubated with 50 pM TGF-β for 7 hr. The luciferase activity in cells treated without cholesterol was taken as 100% (a). […] (H) Cells were incubated with 0.0625 and 0.125 pM TGF-β1 in the presence of increasing concentrations of cholesterol, as indicated. […] The experiments were carried out in triplicate.

Mv1Lu cells = experiment: Cell viability under the experimental conditions, Mv1Lu cells; format: cell-based, mink; conditions: conditions of the thymidine incorporation or affinity labeling experiment
Experimental: The growth of cholesterol-treated cells was determined by measurement of [methyl-^3H]thymidine incorporation into cellular DNA as described (30). Briefly, cells grown near confluence on 48-well clustered dishes were treated with several concentrations of cholesterol at 37° C. for 1 hr in serum-free DMEM. The final concentration of ethanol (the vehicle for cholesterol) in the medium was 0.2%. Treated cells were then incubated with 0.0625 pM or 0.125 pM of TGF-β1 in DMEM containing 0.1% fetal calf serum at 37° C. for 18 hr. The [methyl-^3H]thymidine incorporation into cellular DNA was then determined by incubation of cells with [methyl-^3H]thymidine at 37° C. for 2 hr in DMEM containing 0.1% fetal calf serum. The optimal concentrations of TGF-β1 to inhibit cell growth are in the range of 0.1 to 1 pM.
To define the specificity of the cholesterol effect, we determined the effects of cholesterol analogs and derivatives on ^125I-TGF-β1 binding to TβR-I and TβR-II in Mv1Lu cells. These cells were treated with 50 μg/ml of cholesterol or related oxysterol derivatives (25-hydroxycholesterol, 7-dehydrocholesterol (7-DHC), oxidized 7-DHC (oxy-7-DHC), cholest-5-en-7-one, 7-ketocholesterol, 7β,8β-epoxycholestanol, and 7β-hydroxycholesterol) at 37° C. for 1 hr. ^125I-TGF-β1 binding to TGF-β receptors was then determined by affinity labeling.

TβR-I and TβR-II = experiment: 125I-TGF-β1 affinity labeling, CHO-K1 cells; format: cell-based, Chinese hamster; conditions: 1 μM, 37° C. 16 hr, 0.12 untreated
Experimental: (A, B, C, D, E, F) Cells were treated with LDL (50 μg protein/ml), VLDL (5 μg protein/ml), HDL (50 μg protein/ml), lipoprotein (a) (10 μg/ml), fluvastatin (F; 1 μM), lovastatin (L; 1 μM), nystatin (Nys; 25 μg/ml), β-CD (β-CD; 8 mM), cholest-4-en-3-one (3-one; 50 μg/ml) or cholesterol (Chol; 50 μg/ml) alone or combination of two. After 1 hr at 37° C. or 16 hr at 37° C. (for fluvastatin and lovastatin), ^125I-TGF-β1 affinity labeling of cell-surface TGF-β receptors was performed at 0° C. ^125I-TGF-β1 affinity-labeled TβR-I and TβR-II were analyzed by 7.5% SDS-PAGE and autoradiography. The relative intensities of TβR-I and TβR-II were quantified with a PhosphoImager. The ratio of ^125I-TGF-β1 binding to TβR-II and TβR-I were estimated. The numbers above the lane sequence denote the ratio of TβR-II/TβR-I.
After cross-linking, cell lysates were analyzed by 7.5% SDS-PAGE and autoradiography or quantified by a PhosphoImager. For all experiments, cholesterol or cholesterol derivatives were prepared as the stock solution with a concentration of 25 mg/ml in ethanol. The final concentration of ethanol in the medium was 0.2% (by vol.). […]

Structure (SMILES): CC(C)CCC[C@@H](C)[C@H]1CC[C@H]2[C@@H]3CC=C4C[C@@H](O)CC[C@]4(C)[C@H]3CC[C@]12C [cholesterol]
- suppression of TGF-β1-stimulated PAI-1 expression (PAI-1 expression): 50-80%
- effect on cell viability (Mv1Lu cells): did not appear to affect

Structure (SMILES): CC[C@H](C)C(=O)O[C@H]1C[C@@H](C)C=C2C=C[C@H](C)[C@H](CC[C@@H]3C[C@@H](O)CC(=O)O3)[C@H]21 [lovastatin, reference compound]
- ratio of TβR-II/TβR-I (TβR-I and TβR-II): 0.18
